These results are taken from ChEMBL document CHEMBL1201862, “PubChem BioAssay data set” (2004).

Structures are written as SMILES.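 Each compound was tested at five concentrations against cells in 96-well plates for 48 hours. Abbreviation: GI50, concentration required for 50% inhibition of growth.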 Calls of active or inactive are those of the source. No stated cut-off is given here; in the data, active = GI50 up to about 1.1 µM and inactive = higher.

What all share (assay): DTP human tumour cell line panel, 48 h
Assay [1] deals with HOP-62.
Assay [2] relates to SNB-75.
Assay [3] deals with EKVX.
Assay [4] has as its system CAKI-1.
Assay [5] has as its system 786-0.
Assay [6] relates to MCF7.
Assay [7] has as its system MOLT-4.
For assay [8], the system named is SK-MEL-2.
The test system of assay [9] is MDA-MB-435.
For assay [10], the system named is OVCAR-5.
In assay [11] the test system is HCT-15.
The test system of assay [12] is PC-3.
For assay [13], the system named is A498.
The test system of assay [14] is SF-539.
The subject of assay [15] is SF-268.
The test system of assay [16] is CCRF-CEM.
The test system of assay [17] is ACHN.
The test system of assay [18] is BT-549.
The test system of assay [19] is U-251.
For assay [20], the system named is HL-60.

As to `Oc1ccnc(SCc2ccc(Cl)cc2)n1`, the GI50 in assay [1], in assay [2], in assay [3], in assay [4], in [5] and in [6] was > 100 µM (inactive) in each case. Besides, the GI50 (usually the concentration giving 50% growth inhibition) in assay [7] was 63.7 µM (inactive); in assay [8], > 100 µM (inactive); in assay [9], > 100 µM (inactive); in [10], > 100 µM (inactive); in assay [11] it was greater than 100 µM; in [12], > 100 µM (inactive). The GI50 in assay [13], in [14], in [15], in [16], in assay [17] and in assay [18] was > 100 µM (inactive) throughout. For the same compound, the GI50 in assay [19] is > 100 µM (inactive).
Consider `C=C(CCC/C(C)=C/C=C/[C@@H](C)CCCc1ccoc1)C[C@@H]1OC(=O)[C@H](C)[C@@H]1O`, for which the GI50 was 8.69 µM (inactive) in [1]; 9.77 µM (inactive) in assay [2]; 9.2 µM (inactive) in assay [3]; 9.91 µM (inactive) in assay [4]; 10.8 µM (inactive) in assay [5]; 7.89 µM (inactive) in assay [6]. Also, the GI50 in [7] is 16.1 µM (inactive); in assay [8] it was 8.18 µM (inactive); in assay [9], 7.96 µM (inactive); in [10], 18.4 µM (inactive); in assay [11], 10.1 µM; in assay [12], 7.31 µM (inactive). In addition, the GI50 in assay [13] is 7.26 µM (inactive); in assay [14], 8.17 µM (inactive); in [15], 9.31 µM (inactive); in [16], 9.89 µM (inactive); in assay [17] it was 7.59 µM (inactive); in assay [18], 8.95 µM (inactive). Further, in assay [19], the GI50 was 11 µM (inactive).
Regarding `C[C@]12[C@@H]3CC[C@H]1[C@@H](O)C(=O)N2CC3`, the GI50 in [1], in assay [2], in assay [3], in assay [4], in [5] and in assay [6] was > 100 µM (inactive) throughout. Besides, the GI50 in assay [7] was > 100 µM (inactive); in [8], > 100 µM (inactive); in assay [9] it was > 100 µM (inactive); in assay [10] it was > 100 µM (inactive); in assay [11] it was greater than 100 µM; in [12], > 100 µM (inactive). For the same compound, the GI50 in assay [13], in [15], in [16], in [17], in assay [18] and in [19] was > 100 µM (inactive) throughout. Also, the GI50 in assay [20] was > 100 µM (inactive).
Regarding `O=C1/C(=C/C=C/c2ccccc2)CCC1CNc1ccccc1` (stereo unspecified), the GI50 was > 100 µM (inactive) in assay [1]; > 100 µM (inactive) in assay [2]; > 100 µM (inactive) in [3]; 40.2 µM (inactive) in assay [4]; 16.6 µM (inactive) in assay [5]; 6.49 µM (inactive) in assay [6]. Moreover, the GI50 in assay [7] is 20.3 µM (inactive); in [9] it was 40.8 µM (inactive); in assay [10], > 65.8 µM (inactive); in assay [11] it was 18.4 µM; in assay [12], 36 µM (inactive); in [13], > 27 µM (inactive). Also, the GI50 in [14] is > 54.5 µM (inactive); in [15], 36.7 µM (inactive); in [16], 3.48 µM (inactive); in assay [17] it was 76.9 µM (inactive); in [18], 32.1 µM (inactive); in assay [19] it was > 59.3 µM (inactive). Moreover, in assay [20], the GI50 was 4.07 µM (inactive).
Regarding `FC(F)(Sc1nc2ccccc2[nH]1)c1nc2ccccc2o1`, the GI50 in assay [1], in [2], in assay [4], in assay [5], in assay [6] and in assay [7] was > 100 µM (inactive) throughout. In addition, the GI50 was > 100 µM (inactive) in assay [8]; > 100 µM (inactive) in assay [9]; > 100 µM (inactive) in assay [10]; greater than 100 µM in assay [11]; > 100 µM (inactive) in assay [12]; > 100 µM (inactive) in assay [13]. For the same compound, the GI50 in assay [14] is > 100 µM (inactive); in [15], > 100 µM (inactive); in [16] it was > 100 µM (inactive); in assay [17], > 100 µM (inactive); in assay [18], 75.5 µM (inactive); in assay [19], > 100 µM (inactive).
Turning to `CC1(/C=C/CCSc2ccccc2)CC(=O)C2CC1C2(C)C` (stereo unspecified), the GI50 in [1] is 36.9 µM (inactive); in assay [2] it was 11.2 µM (inactive); in assay [3], 22.1 µM (inactive); in assay [4], 26.6 µM (inactive); in assay [5], 20.2 µM (inactive); in assay [6] it was 22.6 µM (inactive). For the same compound, the GI50 in assay [7] was 4.67 µM (inactive); in assay [8], 14.3 µM (inactive); in assay [9], 19.3 µM (inactive); in assay [10] it was 44.9 µM (inactive); in [11] it was 15.8 µM; in assay [12], 6.08 µM (inactive). Moreover, the GI50 was 44.7 µM (inactive) in [13]; 7.96 µM (inactive) in assay [14]; 28.5 µM (inactive) in assay [15]; 6.49 µM (inactive) in assay [16]; 19 µM (inactive) in assay [17]; 9.18 µM (inactive) in [18]. Moreover, the GI50 in assay [19] was 14.9 µM (inactive).
As to `COc1cc(CC(C)=O)cc(OC)c1`, the GI50 in [1] is > 100 µM (inactive); in assay [2] it was 17.9 µM (inactive); in assay [3], 67.5 µM (inactive); in assay [5], > 100 µM (inactive); in assay [6], 34.2 µM (inactive); in assay [7], 24.7 µM (inactive). Further, the GI50 is 41 µM (inactive) in assay [9]; > 100 µM (inactive) in assay [10]; 31.6 µM in assay [11]; 11.3 µM (inactive) in [12]; 35 µM (inactive) in assay [13]; 71.1 µM (inactive) in [15]. Further, the GI50 in [16] is 29.8 µM (inactive); in [17], 76.7 µM (inactive); in assay [18], 52.5 µM (inactive); in assay [19], 63.5 µM (inactive); in [20] it was 27.3 µM (inactive).
In the case of `COC(=O)C1CC2CCC1(O[Si](C(C)C)(C(C)C)C(C)C)C(O)C2` (stereo unspecified), the GI50 in assay [1] is 18.4 µM (inactive); in assay [2], 21.9 µM (inactive); in [3], 16 µM (inactive); in [4], 38.5 µM (inactive); in assay [5], 16.9 µM (inactive); in assay [6], 14.9 µM (inactive). For the same compound, the GI50 was 10.9 µM (inactive) in [7]; 15.1 µM (inactive) in [8]; 16.2 µM (inactive) in assay [9]; 14.2 µM (inactive) in assay [10]; 16.9 µM in [11]; 20.7 µM (inactive) in [12]. In addition, the GI50 in [13] was 96.6 µM (inactive); in [15], 26.2 µM (inactive); in assay [16], 24.3 µM (inactive); in assay [17], 22.8 µM (inactive); in assay [18] it was 26.9 µM (inactive); in assay [19], 16.5 µM (inactive). The GI50 in assay [20] is 13.1 µM (inactive).
Consider `Cn1c2ccccc2c(=O)c2cccc(C(=O)NC(CS)C(=O)O)c21` (stereo unspecified), for which the GI50 is > 100 µM (inactive) in assay [1]; 72.4 µM (inactive) in assay [2]; > 100 µM (inactive) in assay [3]; 32.8 µM (inactive) in assay [4]; 81.1 µM (inactive) in assay [5]; 40.9 µM (inactive) in assay [6]. Besides, the GI50 in assay [7] was 63.4 µM (inactive); in assay [8] it was > 100 µM (inactive); in assay [9] it was > 100 µM (inactive); in assay [10] it was > 100 µM (inactive); in [11], greater than 100 µM; in [12], > 100 µM (inactive). For the same compound, the GI50 was > 100 µM (inactive) in assay [13]; 43.2 µM (inactive) in assay [14]; 93.5 µM (inactive) in assay [15]; > 100 µM (inactive) in assay [17]; > 100 µM (inactive) in assay [18]; > 100 µM (inactive) in [19]. For the same compound, the GI50 in assay [20] is < 0.01 µM (active).
Consider `Clc1cc2nnn(C3CCCCO3)c2cc1Cl` (stereo unspecified), for which the GI50 in assay [1] was > 100 µM (inactive); in assay [2], 34.4 µM (inactive); in [3], 20.7 µM (inactive); in assay [4] it was 30.4 µM (inactive); in assay [5], > 100 µM (inactive); in assay [6], > 100 µM (inactive). Besides, the GI50 in [7] is 75.7 µM (inactive); in [8], > 100 µM (inactive); in assay [9] it was > 100 µM (inactive); in assay [10], > 100 µM (inactive); in assay [11], 96.6 µM; in assay [12] it was 58.1 µM (inactive). In addition, the GI50 was 36.1 µM (inactive) in assay [13]; > 100 µM (inactive) in assay [14]; 42.3 µM (inactive) in [15]; > 100 µM (inactive) in assay [16]; > 100 µM (inactive) in assay [17]; 41.5 µM (inactive) in assay [18]. In addition, the GI50 in assay [19] was 80.7 µM (inactive).
Regarding `C[C@H]1C(OCCOC2O[C@@H]3O[C@@]4(C)CC[C@H]5[C@H](C)CCC([C@H]2C)[C@@]35O4)O[C@@H]2O[C@@]3(C)CC[C@H]4[C@H](C)CCC1[C@@]24O3` (stereo partly specified), the GI50 in assay [1] is 37.7 µM (inactive); in [2], 25.9 µM (inactive); in [4] it was 37.2 µM (inactive); in assay [5], 27 µM (inactive); in assay [6], 37 µM (inactive); in assay [7] it was 58.6 µM (inactive). The GI50 is 17.7 µM (inactive) in assay [8]; 38.4 µM (inactive) in assay [9]; 50.7 µM (inactive) in [10]; 28.2 µM in [11]; 28.5 µM (inactive) in [12]; 46.7 µM (inactive) in [13]. Further, the GI50 in assay [14] is 55.7 µM (inactive); in assay [15], 50.5 µM (inactive); in assay [16] it was 30.5 µM (inactive); in assay [17], 40.3 µM (inactive); in assay [18], 95.7 µM (inactive); in assay [19] it was 40.9 µM (inactive). Besides, in [20], the GI50 is 24.9 µM (inactive).
